Measurements published in patent US20100120700A1, “METHODS AND COMPOSITIONS FOR TREATING CERVICAL CANCER” (priority 2000, published 2010).
“And” between values parts separate entries of the source, which are not always exact repeats. Equal entries are not always repeated.

Key:
Experiment in all cases: G assay PDZ-PL binding
Conditions in all cases: peptide 10 uM, protein 5
[1] = biological target: T1, DLG2 #162.1 domain 2 (Homo sapiens, UniProt Q15700, K278N)
T1 construct: made in house; host or cells: E. coli (DH5alpha, BL21 or JM109), vector pGEX-3X
Outline: (§1)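 Specific PDZ–peptide binding is taken as replicate mean signal exceeding GST-only background by standard-error criteria. Biotinylated PL peptides (20 uM; 10 uM under G′ conditions) bind to plate-captured GST/PDZ fusion protein and are detected with streptavidin-HRP at 450 nm.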

[2] = biological target: T2, EBP50 #167.2 domain 1 (Homo sapiens, UniProt O14745)
T2 construct: made in house; host or cells: E. coli (DH5alpha or BL-21)
Outline: as §1

[3] = biological target: T3, HEMBA 1003117 #226.2 domain 1 (Homo sapiens, UniProt Q96JH8)
T3 construct: made in house; host or cells: E. coli (DH5alpha, BL21 or JM109)
Outline: as §1

[4] = biological target: T4, INADL domain 3 (Homo sapiens, UniProt Q8NI35)
T4 construct: made in house; host or cells: E. coli (DH5alpha, BL21 or JM109)
Outline: as §1

[5] = biological target: T5, INADL domain 6 (Homo sapiens, UniProt Q8NI35, G1085V)
T5 construct: made in house; host or cells: E. coli (DH5alpha, BL21 or JM109)
Outline: as §1

[6] = biological target: T6, KIAA0380 #25.8 domain 1 (Homo sapiens, UniProt O15085)
T6 construct: made in house; host or cells: E. coli (DH5alpha, BL21 or JM109), vector pGEX-3X
Outline: as §1

[7] = biological target: T7, KIAA0561 domain 1 (Homo sapiens, UniProt O60307)
T7 construct: made in house; host or cells: E. coli (DH5alpha, BL21 or JM109)
Outline: as §1

[8] = biological target: T8, MUPP1 domain 13 (Homo sapiens, UniProt O75970)
T8 construct: made in house; host or cells: E. coli (DH5alpha or BL-21)
Outline: as §1

[9] = biological target: T9, Magi2 domain 3 (Homo sapiens, UniProt Q86UL8)
T9 construct: made in house; host or cells: E. coli (DH5alpha or BL-21)
Outline: as §1

[10] = biological target: T10, PDZK1 domain 2, 3, 4 (Homo sapiens, UniProt Q5T2W1)
T10 construct: When more than one PDZ domain was cloned, the DNA portion cloned represents the PDZ domains and the cDNA portion located between individual domains; made in house; host or cells: E. coli (DH5alpha, BL21 or JM109)
Outline: as §1

[11] = biological target: T11, SITAC-18 domain 1 (Homo sapiens, UniProt Q9H190)
T11 construct: made in house; host or cells: E. coli (DH5alpha or BL-21)
Outline: as §1

[12] = biological target: T12, Shank 3 domain 1 (Homo sapiens, UniProt Q9BYB0)
T12 construct: made in house; host or cells: E. coli (DH5alpha or BL-21)
Outline: as §1

[13] = biological target: T13, TIAM 2 domain 1 (Homo sapiens, UniProt Q8IVF5)
T13 construct: made in house; host or cells: E. coli (DH5alpha, BL21 or JM109)
Outline: as §1

T9 sequence (Q86UL8 with tags, fused parts or gaps): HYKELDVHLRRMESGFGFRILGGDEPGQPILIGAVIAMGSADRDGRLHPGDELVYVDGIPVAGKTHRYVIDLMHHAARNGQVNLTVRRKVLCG
T8 sequence (O75970 1980-2070): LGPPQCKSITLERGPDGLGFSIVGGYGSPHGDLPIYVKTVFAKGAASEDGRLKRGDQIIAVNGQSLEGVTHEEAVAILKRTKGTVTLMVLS
T2 sequence (O14745 with tags, fused parts or gaps): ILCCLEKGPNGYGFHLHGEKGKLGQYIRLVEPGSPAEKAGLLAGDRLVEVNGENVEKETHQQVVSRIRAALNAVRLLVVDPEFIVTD
T1 sequence (Q15700 whole entry, looked up, the tested form differs by isoform, tags, fused parts or gaps, stated change not applied): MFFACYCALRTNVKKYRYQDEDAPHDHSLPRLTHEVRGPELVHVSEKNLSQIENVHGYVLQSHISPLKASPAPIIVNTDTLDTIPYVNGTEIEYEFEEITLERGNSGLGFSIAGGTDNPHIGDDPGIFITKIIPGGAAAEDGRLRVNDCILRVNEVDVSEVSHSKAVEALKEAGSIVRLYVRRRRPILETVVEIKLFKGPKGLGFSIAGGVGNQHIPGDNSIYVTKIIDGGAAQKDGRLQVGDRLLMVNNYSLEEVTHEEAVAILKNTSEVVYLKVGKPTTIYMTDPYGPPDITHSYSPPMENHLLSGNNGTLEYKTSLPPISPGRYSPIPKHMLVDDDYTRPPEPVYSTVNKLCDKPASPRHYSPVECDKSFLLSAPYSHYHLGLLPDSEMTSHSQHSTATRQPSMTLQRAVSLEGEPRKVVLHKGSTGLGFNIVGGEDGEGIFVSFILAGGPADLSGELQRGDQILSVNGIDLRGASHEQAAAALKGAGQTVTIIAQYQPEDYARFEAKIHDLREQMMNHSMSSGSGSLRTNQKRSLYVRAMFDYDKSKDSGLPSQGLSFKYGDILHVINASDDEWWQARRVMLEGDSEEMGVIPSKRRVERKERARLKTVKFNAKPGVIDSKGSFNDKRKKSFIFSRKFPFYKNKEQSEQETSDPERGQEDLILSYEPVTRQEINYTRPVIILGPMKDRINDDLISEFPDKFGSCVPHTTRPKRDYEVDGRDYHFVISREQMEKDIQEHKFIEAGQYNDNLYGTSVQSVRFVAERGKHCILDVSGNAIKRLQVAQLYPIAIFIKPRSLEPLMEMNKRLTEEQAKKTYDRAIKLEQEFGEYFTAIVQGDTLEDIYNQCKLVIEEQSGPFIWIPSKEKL
T3 sequence (Q96JH8 969-1068): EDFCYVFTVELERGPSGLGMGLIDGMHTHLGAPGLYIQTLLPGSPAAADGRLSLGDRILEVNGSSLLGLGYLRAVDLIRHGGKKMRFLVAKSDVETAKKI
T12 sequence (Q9BYB0 638-747): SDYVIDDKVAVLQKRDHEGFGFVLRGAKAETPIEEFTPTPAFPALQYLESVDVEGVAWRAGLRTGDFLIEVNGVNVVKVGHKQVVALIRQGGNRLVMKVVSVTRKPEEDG
T5 sequence (Q8NI35 with tags, fused parts or gaps G1085V): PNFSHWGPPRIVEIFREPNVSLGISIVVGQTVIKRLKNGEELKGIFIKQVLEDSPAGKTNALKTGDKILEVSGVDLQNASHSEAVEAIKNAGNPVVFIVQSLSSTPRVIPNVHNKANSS
T6 sequence (O15085 45-123): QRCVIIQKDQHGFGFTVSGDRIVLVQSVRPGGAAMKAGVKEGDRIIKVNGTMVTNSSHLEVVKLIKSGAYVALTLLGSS
T13 sequence (Q8IVF5 885-981): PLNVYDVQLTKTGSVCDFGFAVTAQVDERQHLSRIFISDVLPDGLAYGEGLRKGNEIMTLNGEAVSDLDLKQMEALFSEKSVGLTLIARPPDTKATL
T4 sequence (Q8NI35 with tags, fused parts or gaps): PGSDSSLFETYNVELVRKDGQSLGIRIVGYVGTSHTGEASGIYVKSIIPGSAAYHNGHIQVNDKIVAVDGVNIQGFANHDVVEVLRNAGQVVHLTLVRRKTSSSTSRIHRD
T11 sequence (Q9H190 104-195): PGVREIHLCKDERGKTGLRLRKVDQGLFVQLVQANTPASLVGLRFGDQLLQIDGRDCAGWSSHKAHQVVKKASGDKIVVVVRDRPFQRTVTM
T7 sequence (O60307 with tags, fused parts or gaps): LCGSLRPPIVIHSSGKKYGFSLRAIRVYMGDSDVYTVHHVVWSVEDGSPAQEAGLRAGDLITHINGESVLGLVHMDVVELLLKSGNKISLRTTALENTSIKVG

## 20 mer peptide corresponding to the C-terminus of HPV16 E6 (PDZ ligand), biotinylated in binding assays; ends SSRTRRETQL (SEQ ID NO: 13) [HPV E6 #16]
[1]; A450 nm
  Ave OD: 0.908 and 0.853
[1]; vs GST only well
  OD S/N: 3.87 and 3.05
[2]; A450 nm
  Ave OD: 0.3805 and 0.3555
[2]; vs GST only well
  OD S/N: 1.94 and 2.28
[3]; A450 nm
  Ave OD: 0.36 and 0.477
[3]; vs GST only well
  OD S/N: 1.66 and 2.27
[4]; A450 nm
  Ave OD: 0.485
[4]; vs GST only well
  OD S/N: 1.86
[5]; A450 nm
  Ave OD: 0.518
[5]; vs GST only well
  OD S/N: 3.07
[6]; A450 nm
  Ave OD: 0.603
[6]; vs GST only well
  OD S/N: 3.58
[7]; A450 nm
  Ave OD: 0.3475
[7]; vs GST only well
  OD S/N: 2.44
[8]; A450 nm
  Ave OD: 0.4355 and 0.4115
[8]; vs GST only well
  OD S/N: 1.56 and 1.75
[9]; A450 nm
  Ave OD: 0.4165 and 0.359
[9]; vs GST only well
  OD S/N: 1.98 and 1.65
[10]; A450 nm
  Ave OD: 0.518
[10]; vs GST only well
  OD S/N: 2.64
[11]; A450 nm
  Ave OD: 0.3975
[11]; vs GST only well
  OD S/N: 1.63
[12]; A450 nm
  Ave OD: 0.396
[12]; vs GST only well
  OD S/N: 2.61
[13]; A450 nm
  Ave OD: 0.356
[13]; vs GST only well
  OD S/N: 2.05
